For test [1], the target named is rat α3β2 nAChR (Rattus norvegicus, UniProt P04757+P12390). The test can be described thus: cell-based.
For test [2] the following is noted: in vivo; cited from earlier work.
Test [3] deals with rat α7 nAChR (Rattus norvegicus, UniProt Q05941). The test can be described thus: cell-based. The class given is cell-based.

“Also recorded” adds a separate entry of the source. Where a SMILES comes first, the peptide text is derived from it. Bridges are numbered along the chain shown (N, C = ends).

rat α7 nAChR, sequence (Q05941 23-502 limits assumed): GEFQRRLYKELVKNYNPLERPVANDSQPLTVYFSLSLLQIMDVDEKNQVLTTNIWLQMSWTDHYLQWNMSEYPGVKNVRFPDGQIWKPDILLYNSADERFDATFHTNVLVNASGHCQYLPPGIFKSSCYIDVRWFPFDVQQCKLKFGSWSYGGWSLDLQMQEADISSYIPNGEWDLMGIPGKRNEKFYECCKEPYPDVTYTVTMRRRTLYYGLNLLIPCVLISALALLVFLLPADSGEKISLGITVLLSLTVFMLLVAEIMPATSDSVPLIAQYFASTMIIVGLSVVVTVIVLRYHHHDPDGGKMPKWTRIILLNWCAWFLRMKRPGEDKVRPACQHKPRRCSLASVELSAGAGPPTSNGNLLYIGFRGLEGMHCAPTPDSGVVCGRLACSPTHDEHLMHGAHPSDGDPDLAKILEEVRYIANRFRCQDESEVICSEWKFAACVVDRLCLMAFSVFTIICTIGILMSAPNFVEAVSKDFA
rat α3β2 nAChR, sequence (P04757 26-499 limits assumed): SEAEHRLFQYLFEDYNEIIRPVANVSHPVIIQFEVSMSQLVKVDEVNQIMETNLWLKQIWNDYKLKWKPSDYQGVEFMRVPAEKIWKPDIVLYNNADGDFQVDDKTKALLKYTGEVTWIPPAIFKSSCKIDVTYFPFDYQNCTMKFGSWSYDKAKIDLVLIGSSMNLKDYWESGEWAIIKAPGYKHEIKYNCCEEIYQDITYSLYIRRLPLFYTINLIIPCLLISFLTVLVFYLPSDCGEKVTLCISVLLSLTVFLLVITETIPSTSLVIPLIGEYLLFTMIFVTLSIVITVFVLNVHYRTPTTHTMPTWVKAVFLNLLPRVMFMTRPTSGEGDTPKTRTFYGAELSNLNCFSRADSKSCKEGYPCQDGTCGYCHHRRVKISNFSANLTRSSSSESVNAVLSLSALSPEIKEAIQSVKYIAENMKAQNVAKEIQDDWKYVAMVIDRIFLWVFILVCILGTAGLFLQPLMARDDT
rat α3β2 nAChR, sequence (P12390 25-500 limits assumed): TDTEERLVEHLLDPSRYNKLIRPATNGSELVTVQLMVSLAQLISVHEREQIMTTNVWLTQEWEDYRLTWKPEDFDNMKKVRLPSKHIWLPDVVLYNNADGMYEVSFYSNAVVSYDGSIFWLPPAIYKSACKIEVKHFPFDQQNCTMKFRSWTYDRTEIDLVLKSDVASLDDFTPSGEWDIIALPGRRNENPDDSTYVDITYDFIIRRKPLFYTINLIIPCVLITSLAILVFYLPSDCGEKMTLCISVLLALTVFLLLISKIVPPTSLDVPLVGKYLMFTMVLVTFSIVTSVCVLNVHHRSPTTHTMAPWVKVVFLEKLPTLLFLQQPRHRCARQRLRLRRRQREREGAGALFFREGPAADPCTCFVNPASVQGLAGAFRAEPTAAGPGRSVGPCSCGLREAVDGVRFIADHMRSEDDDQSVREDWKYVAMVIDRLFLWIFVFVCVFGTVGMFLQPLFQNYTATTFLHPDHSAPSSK

Consider `CC[C@H](C)[C@@H]1NC(=O)[C@@H]2CSSC[C@H](NC(=O)[C@@H](NC(=O)CN)CSSC[C@@H](C(=O)O)NC(=O)[C@H](CC(C)C)NC(=O)[C@H](CC(=O)O)NC(=O)[C@@H]3CCCN3C(=O)[C@H](CC(N)=O)NC(=O)[C@H](CC(N)=O)NC(=O)[C@H](C)NC1=O)C(=O)N[C@@H](CO)C(=O)N[C@@H](CCCNC(=N)N)C(=O)N1CCC[C@H]1C(=O)N1CCC[C@H]1C(=O)N2` [Recombinant TxIA], for which the “nH (Hill coefficient)” value in test [1] is recorded as −1.54.

For the compound Vc1.1, the analgesic properties entry in test [2] is recorded as “potent analgesic properties”.

On to `CC[C@H](C)[C@@H]1NC(=O)[C@@H]2CSSC[C@H](NC(=O)[C@@H](NC(=O)CN)CSSC[C@@H](C(=O)O)NC(=O)[C@H](CC(C)C)NC(=O)[C@H](CC(=O)O)NC(=O)[C@@H]3CCCN3C(=O)[C@H](CC(N)=O)NC(=O)[C@H](CC(N)=O)NC(=O)[C@H](C)NC1=O)C(=O)N[C@@H](CO)C(=O)N[C@@H](CC(N)=O)C(=O)N1CCC[C@H]1C(=O)N1CCC[C@H]1C(=O)N2` [Recombinant [R5N]TxIA] (H-GCCSNPPCIANNPDLC-OH; disulfide 2-16, 3-8), for which, in test [1], the IC50 was 1.83 µM and the “nH (Hill coefficient)” value is recorded as −1.36. In test [3], the “activity at α7 nAChR (in words)” value is given as “but not when an asparagine residue was introduced in this position”.

With `CC[C@H](C)[C@@H]1NC(=O)[C@@H]2CSSC[C@H](NC(=O)[C@@H](NC(=O)CN)CSSC[C@@H](C(=O)O)NC(=O)[C@H](CC(C)C)NC(=O)[C@H](CC(=O)O)NC(=O)[C@@H]3CCCN3C(=O)[C@H](CC(N)=O)NC(=O)[C@H](CC(N)=O)NC(=O)[C@H](C)NC1=O)C(=O)N[C@@H](CO)C(=O)N[C@@H](CC(=O)O)C(=O)N1CCC[C@H]1C(=O)N1CCC[C@H]1C(=O)N2` [Recombinant [R5D]TxIA] (H-GCCSDPPCIANNPDLC-OH; disulfide 2-16, 3-8), in test [1], inhibition was half-maximal at 3.54 µM (IC50) and the “nH (Hill coefficient)” value was −1.38. In addition, in test [3], the IC50 was 2.91 µM, the “activity at α7 nAChR (in words)” value is “almost completely reversed; also recorded: could rescue the activity at the α7 nAChR at a similar level to that of globular TxIA” and the “nH (Hill coefficient)” value was −1.24.

Regarding `CC[C@H](C)[C@@H]1NC(=O)[C@@H]2CSSC[C@H](NC(=O)CN)C(=O)N[C@@H](CSSC[C@@H](C(N)=O)NC(=O)[C@H](CC(C)C)NC(=O)[C@H](CC(=O)O)NC(=O)[C@@H]3CCCN3C(=O)[C@H](CC(N)=O)NC(=O)[C@H](CC(N)=O)NC(=O)[C@H](C)NC1=O)C(=O)N[C@@H](CO)C(=O)N[C@@H](CCCNC(=N)N)C(=O)N1CCC[C@H]1C(=O)N1CCC[C@H]1C(=O)N2` [Synthetic TxIA, reference compound], the IC50 in test [1] was found to be 0.0046 µM; in test [3], 1.81 µM.
